Two compounds from US11440870B2, “Cannabidiolic acid esters compositions and uses thereof” (Yissum Research Development Company of the Hebrew …, priority 2017, dated 2022) can be followed below.

The target of the test is T1, human 5-HT1A receptors (Homo sapiens, UniProt P08908).
T1 construct: expressed in transfected cells; membranes used
T1 sequence (P08908 1-422): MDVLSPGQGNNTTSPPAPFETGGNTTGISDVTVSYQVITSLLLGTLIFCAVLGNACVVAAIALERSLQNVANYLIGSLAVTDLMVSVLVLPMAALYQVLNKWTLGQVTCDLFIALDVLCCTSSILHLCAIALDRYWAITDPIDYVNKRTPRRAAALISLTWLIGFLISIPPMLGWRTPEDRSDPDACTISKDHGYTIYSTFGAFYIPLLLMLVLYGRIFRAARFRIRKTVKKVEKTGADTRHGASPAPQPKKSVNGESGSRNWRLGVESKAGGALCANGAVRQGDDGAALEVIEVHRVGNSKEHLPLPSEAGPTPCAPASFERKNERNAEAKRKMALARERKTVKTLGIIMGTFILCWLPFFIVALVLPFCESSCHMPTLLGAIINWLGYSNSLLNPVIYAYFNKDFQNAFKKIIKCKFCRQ
The experiment in a line: [35S]-GTPγS binding assay: enhancement of 8-OH-DPAT-induced stimulation, human 5-HT1A CHO cell membranes. Format: biochemical. To be noted: n=6. As for the experimental part: CHO cells stably transfected with cDNA encoding human 5-HT1A receptors (a generous gift from Dr Keith Parker) were maintained at 37° C. and 5% CO2 in Gibco™ Ham's F-12 Nutrient Mix supplied by Fisher Scientific UK Ltd that was supplemented both with 2 mM L-glutamine, 10% FBS and 0.6% penicillin-streptomycin, all also supplied by Fisher Scientific UK Ltd, and with the disulphate salt of G418 [(2R,3S,4R,5R,6S)-5-amino-6-{[(1R,2S,3S,4R,6S)-4,6-diamino-3-{[(2R,3R,4R,5R)-3,5-dihy-droxy-5-methyl-4-(methylamino)oxan-2-yl]oxy}2-hydroxy cyclohexyl]oxy}-2-[(1R)-1-hydroxyethyl]oxane-3,4-diol; […]] supplied by Sigma-Aldrich UK.
[^35S]-GTPγS binding assay. Each assay was carried out with human 5-HT1A CHO cell membranes (50 μg protein per well), GTPγS-binding buffer (50 mM Tris-HCl; 50 mM Tris-Base; 5 mM MgCl2; 1 mM EDTA; 100 mM NaCl; 1 mM DTT and 0.1% BSA), 0.1 nM [^35S]-GTPγS and 30 μM GDP, in a final volume of 500 μL (Cascio et al., 2010). Binding was initiated by the addition of [^35S]-GTPγS to the wells. Non-specific binding was measured in the presence of 30 μM GTPγS. Assays were performed at 30° C. for 60 min (Cascio et al., 2010). The reaction was terminated by a rapid vacuum filtration method using Tris-binding buffer as described previously by Cascio et al. (2010), and the radioactivity was quantified by liquid scintillation spectrometry. In all the [^35S]-GTPγS-binding assays, 0.1 nM [^35S]-GTPγS was used, […] and a protein concentration of […]. CBDA, HU-580, 8-OH-DPAT and WAY100635 were stored at −20° C. as 10 mM stock solutions dissolved in DMSO.
Net agonist-stimulated [^35S]-GTPγS binding values were calculated by subtracting basal binding values (obtained in the absence of agonist) from agonist-stimulated values (obtained in the presence of agonist) (Cascio et al., 2010). Values are expressed as means and variability as SEM or as 95% confidence limits. Mean EC50 and mean maximal effect (Emax) values, and SEM or 95% confidence limits of these values, have been calculated by nonlinear regression analysis using the equation for a sigmoid concentration-response curve (GraphPad Prism). P values<0.05 were considered significant. The data and statistical analysis comply with the recommendations on experimental design and analysis in pharmacology (Curtis et al., 2015).

Structures are written as SMILES.

As a reminder, the Emax is the size of the effect at its maximum, as opposed to the concentration needed. Take `C=C(C)[C@@H]1CCC(C)=C[C@H]1c1c(O)cc(CCCCC)c(C(=O)O)c1O` [CBDA, Cannabidiolic acid]: the maximal effect (Emax) runs as follows: (pretreatment 0.01 nM CBDA (FIG. 1A)) 95.6%; (pretreatment 0.1 nM CBDA (FIG. 1B), * P<0.05 vs vehicle) 115%; (pretreatment 1.0 nM CBDA (FIG. 1C), * P<0.05 vs vehicle) 167%; (pretreatment 10 nM CBDA (FIG. 1D), * P<0.05 vs vehicle) 144%; (pretreatment 100 nM CBDA (FIG. 1E)) 109%.

For the compound `C=C(C)[C@@H]1CCC(C)=C[C@H]1c1c(O)cc(CCCCC)c(C(=O)OC)c1O` [HU-580, Cannabidiolic Acid Methyl Ester], the “Effect of the compound by itself on [35S]-GTPγS binding (agonist or inverse agonist behaviour)” value (administered by itself at 0.01, 0.1, 1, 10 or 100 nM, data not shown) is “did not behave as a 5-HT1A receptor agonist or inverse agonist”. Also, the Emax by setting is: (pretreatment 0.001 nM HU-580 (FIG. 2A)) 99.8%; (pretreatment 0.001 nM HU-580 (FIG. 2B), * P<0.05 vs vehicle) 127%; (pretreatment 0.1 nM HU-580 (FIG. 2C), * P<0.05 vs vehicle) 125%; (pretreatment 1.0 nM HU-580 (FIG. 2D), * P<0.05 vs vehicle) 140%; (pretreatment 10 nM HU-580 (FIG. 2E), * P<0.05 vs vehicle) 139%; (pretreatment 100 nM HU-580 (FIG. 2F)) 92%.
